# Source: the supplement of paper PMC10307832
# Columns and labels:
# Experiment in all cases: relative viability (nuclei count vs DMSO), 5 days (fraction); higher = more cells survive
# [1] = compound: CCc1c2c(nc3ccc(OC(=O)N4CCC(N5CCCCC5)CC4)cc13)-c1cc3c(c(=O)n1C2)COC(=O)[C@]3(O)CC [Irinotecan] + O=C(CCCCCCC(=O)Nc1ccccc1)NO [Vorinostat] (partner 1 µM)
# Method in brief: (§1)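 Cells from lung cancer lines were seeded into 1536-well plates and, one day later, dosed by pin tool. Treatments were either a single drug or a fixed dose of an anchor drug with five library-drug doses (not always all listed) in √10 steps. After 5 days, nuclei were stained in a one-step fixation (final 0.05% Triton X-100, 1% formaldehyde, 1 ug/ml Hoechst) and counted on 4× images, and relative viability is the treated-to-vehicle nuclei ratio, as the median of duplicate plates.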
# [2] = compound: CCc1c2c(nc3ccc(OC(=O)N4CCC(N5CCCCC5)CC4)cc13)-c1cc3c(c(=O)n1C2)COC(=O)[C@]3(O)CC [Irinotecan] + CS(=O)(=O)N1CCN(Cc2cc3nc(-c4cccc5[nH]ncc45)nc(N4CCOCC4)c3s2)CC1 [Pictilisib] (partner 1 µM)
# Method in brief: as §1
# [3] = compound: Cn1cc(-c2cnc3ccc4ccc(CS(=O)(=O)NCc5ccccn5)cc4c(=O)c3c2)cn1 [MK-8033] + Nc1ncn([C@H]2C[C@H](O)[C@@H](CO)O2)c(=O)n1 [Decitabine] (partner 2 µM)
# Method in brief: as §1
# [4] = compound: CC[C@@H](C)CNCC(=O)N1CCC2=C([C@@H]1COC3=CC=CC(=C3)C)C=CS2 [RU-SKI 43] + O=C(c1cc(Cc2n[nH]c(=O)c3ccccc23)ccc1F)N1CCN(C(=O)C2CC2)CC1 [Olaparib] (partner 8 µM)
# Method in brief: as §1
cell line,measurement,setting,value
UMC-11,relative viability,[1]; first compound 0.6325 µM,0.262
same,relative viability,[1]; first compound 2 µM,0.343
same,relative viability,[1]; first compound 6.325 µM,0.235
same,relative viability,[1]; first compound 20 µM,0.206
same,relative viability,[2]; first compound 0.6325 µM,0.317
same,relative viability,[2]; first compound 2 µM,0.532
same,relative viability,[2]; first compound 6.325 µM,0.215
same,relative viability,[2]; first compound 20 µM,0.158
same,relative viability,[3]; first compound 0.02 µM,0.593
same,relative viability,[3]; first compound 0.06325 µM,0.424
same,relative viability,[3]; first compound 0.2 µM,0.59
same,relative viability,[3]; first compound 0.6325 µM,0.714
same,relative viability,[3]; first compound 2 µM,0.612
same,relative viability,[4]; first compound 0.1 µM,0.397
same,relative viability,[4]; first compound 0.3162 µM,0.418
same,relative viability,[4]; first compound 1 µM,0.399
same,relative viability,[4]; first compound 3.162 µM,0.383
same,relative viability,[4]; first compound 10 µM,0.273
